Results reported in US10160747B2, “Compounds and methods for kinase modulation, and indications therefor” (Plexxikon Inc., priority 2016, dated 2018).

Key:
[1] = test system: MOLM-14 D835Y (endogenous FLT3 ITD and transfected FLT3 D835Y); test: MOLM-14 D835Y cell proliferation assay (CellTiter-Glo); assay type: cell-based; settings: Homo sapiens, MOLM-14, 72 h; 3 d growth, GMean
Source text: (§1) The FLT3 inhibitors may be assessed using the MOLM-14, Acute Myeloid Leukemia cell line that endogenously expresses FLT3 ITD or derivatives of the human FLT3 AML cell line which acquired the D835Y (activation loop) of F691L (gatekeeper) mutation after selection in escalating doses of the FLT3 Inhibitor AC220. FLT3 inhibitors may also be assessed using cells that are engineered to express mutant FLT3. For engineered cells, murine Ba/F3 cells were transfected with full-length FLT3 ITD/D835Y mutations. The parental BA/F3 cells are dependent upon Interleukin-3 (IL-3) for survival, and introduction of the FLT3 constructs rendered these cells dependent upon FLT3 kinase activity when cultured in the absences of IL-3. Engineered BA/F3 cell growth assays can be performed in either the […] of IL-3, to assess the compound inhibition of FLT3 or to detect the presence of off-target activity, respectively. Inhibitors of FLT3 kinase activity reduce or eliminate the FLT3 oncogenic signaling, resulting in reduced cell proliferation. This inhibition is measured as a function of compound concentration to assess IC50 values.
(§2) Cell lines used in proliferation assays are as follows in Table 2:
(§3) Cells were seeded at 1×10^4 cells per well of a 96 well cell culture plate in 50 μl of cell culture medium. Compounds were dissolved in DMSO, typically at a concentration of 0.5 mM and were serially diluted 1:3 for a total of eight points and added to the cells to final concentrations of […], 0.0041, 0.0014 and 0.00046 μM in 100 μl cell culture medium (final concentration 0.2% DMSO). […] The cells were incubated at 37° C., 5% CO2 for three days. CellTiter-Glo Buffer (Promega Cell Viability Assay catalog #G7573) and substrate were equilibrated to room temperature, and enzyme/substrate Recombinant Firefly Luciferase/Beetle Luciferin was reconstituted. The cell plates were equilibrated to room temperature for 30 minutes, then lysed by addition of an equivalent volume of the Celltiter-Glo Reagent. The plate was mixed for 10 minutes on a plate shaker to lyse the cells. The plates were read on a Tecan M1000 using Luminescence protocol modified to read 0.1 s per well. The luminescence reading assesses the ATP content, which correlates directly with cell number such that the reading as a function of compound concentration was used to determine the IC50 value.

BA/F3-FLT3-ITD + D835Y = molecular target: T1, BA/F3-FLT3-ITD + D835Y (Homo sapiens, UniProt P36888, D835Y, cells depend on it, form not given); test: Engineered BA/F3 cell growth assay, FLT3 ITD/D835Y; assay type: cell-based, murine; settings: 3 d growth
T1 sequence (P36888 with tags, fused parts or gaps INS600HVDFREYEYD/D835Y): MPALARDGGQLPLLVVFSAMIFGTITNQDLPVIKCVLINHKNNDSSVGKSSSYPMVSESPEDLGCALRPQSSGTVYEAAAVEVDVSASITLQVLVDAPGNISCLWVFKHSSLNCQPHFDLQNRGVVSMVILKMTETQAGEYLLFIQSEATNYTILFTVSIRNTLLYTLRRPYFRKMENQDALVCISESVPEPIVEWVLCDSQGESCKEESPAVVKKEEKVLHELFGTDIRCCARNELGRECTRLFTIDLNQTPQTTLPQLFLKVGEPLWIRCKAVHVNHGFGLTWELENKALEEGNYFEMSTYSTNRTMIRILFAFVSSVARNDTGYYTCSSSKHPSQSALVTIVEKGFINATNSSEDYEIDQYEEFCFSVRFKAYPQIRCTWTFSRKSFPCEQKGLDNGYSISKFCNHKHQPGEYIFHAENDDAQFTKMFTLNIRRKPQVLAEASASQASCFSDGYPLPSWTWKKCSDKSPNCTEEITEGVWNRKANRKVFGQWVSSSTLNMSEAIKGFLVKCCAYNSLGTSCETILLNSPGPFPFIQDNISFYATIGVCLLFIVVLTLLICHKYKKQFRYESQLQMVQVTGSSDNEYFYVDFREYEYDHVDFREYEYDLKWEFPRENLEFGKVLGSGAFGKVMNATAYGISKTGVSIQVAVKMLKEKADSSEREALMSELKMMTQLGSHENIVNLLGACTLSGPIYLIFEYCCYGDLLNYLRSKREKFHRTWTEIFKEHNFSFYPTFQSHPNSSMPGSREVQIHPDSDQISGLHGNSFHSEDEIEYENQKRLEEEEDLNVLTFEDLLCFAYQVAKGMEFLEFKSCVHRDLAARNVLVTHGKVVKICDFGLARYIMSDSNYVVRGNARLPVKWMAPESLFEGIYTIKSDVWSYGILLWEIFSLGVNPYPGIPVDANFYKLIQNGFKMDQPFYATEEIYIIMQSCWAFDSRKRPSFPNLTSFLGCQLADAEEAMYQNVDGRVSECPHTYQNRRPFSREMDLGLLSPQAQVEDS
Source text: as §1, §2, §3
The BaF3 assays as developed used to generate the data in Tables 7 and 8 are identical and differ only in minor details in regards to vector design, not biological function. Both introduce the FLT3 gene with MV4-11 based ITD duplications and resistance mutations from an exogenous promoter (MSCV and CMV respectively) in the exact same cell line.
As a result of the expressed FLT3 protein, the IL3 factor dependent BaF3 cell clones become IL3-factor independent.
The compounds in Tables 7 and 8 were tested in an identical fashion by incubating such clones in with increasing concentrations. Inhibition of the FLT3 activity by an inhibitor results in factor dependency, which in the absence of IL3 results in cell death in the three day growth assays.

[2] = test system: MOLM-14 F691L (endogenous FLT3 ITD and transfected FLT3 F691L); test: MOLM-14 F691L cell proliferation assay (CellTiter-Glo); assay type: cell-based; settings: Homo sapiens, MOLM-14, 72 h; 3 d growth, GMean
Source text: as §1, §2, §3

Cn1cc(Nc2ncc(-c3ccc(CC(=O)Nc4cnc(Cl)c(Br)c4)cc3)cn2)cn1 [Compound P-0117, N-(5-bromo-6-chloro-3-pyridyl)-2-[4-[2-[(1-methylpyrazol-4-yl)amino]pyrimidin-5-yl]phenyl]acetamide]
0.0001 to 10 µM: IC50 [1] | GI50 (BA/F3-FLT3-ITD + D835Y) | IC50 [2]

COc1ncc(NC(=O)Cc2ccc(-c3cnc4[nH]c(-c5ccc(N6CCOCC6)nc5)cc4c3)cc2F)cc1C(F)(F)F [Compound P-0010, 2-[2-fluoro-4-[2-(6-morpholino-3-pyridyl)-1H-pyrrolo[2,3-b]pyridin-5-yl]phenyl]-N-[6-methoxy-5-(trifluoromethyl)-3-pyridyl]acetamide]
0.0001 to 10 µM: IC50 [1] | GI50 (BA/F3-FLT3-ITD + D835Y) | IC50 [2]

Cn1cc(Nc2ncc(-c3ccc(CC(=O)Nc4cc(C(C)(F)F)ccn4)c(F)c3)cn2)cn1 [Compound P-0093, N-[4-(1,1-difluoroethyl)-2-pyridyl]-2-[2-fluoro-4-[2-[(1-methylpyrazol-4-yl)amino]pyrimidin-5-yl]phenyl]acetamide]
0.0001 to 10 µM: IC50 [1] | GI50 (BA/F3-FLT3-ITD + D835Y) | IC50 [2]

Cn1cc(Nc2ncc(-c3ccc(CC(=O)NCc4ccc(C(F)(F)F)cc4)cc3)cn2)cn1 [Compound P-0129, 2-[4-[2-[(1-methylpyrazol-4-yl)amino]pyrimidin-5-yl]phenyl]-N-[[4-(trifluoromethyl)phenyl]methyl]acetamide]
0.0001 to 10 µM: IC50 [1] | GI50 (BA/F3-FLT3-ITD + D835Y) | IC50 [2]

O=C(Cc1ccc(-c2cnc(Nc3cnn(C(F)F)c3)nc2)cc1)Nc1cncc(C2CC2)c1 [Compound P-0224, N-(5-cyclopropyl-3-pyridyl)-2-[4-[2-[[1-(difluoromethyl)pyrazol-4-yl]amino]pyrimidin-5-yl]phenyl]acetamide]
0.0001 to 10 µM: IC50 [1] | GI50 (BA/F3-FLT3-ITD + D835Y) | IC50 [2]

COCCn1cc(Nc2ncc(-c3ccc(CC(=O)Nc4cnc(C)c(C(F)(F)F)c4)c(F)c3)cn2)cn1 [Compound P-0264, 2-[2-fluoro-4-[2-[[1-(2-methoxyethyl)pyrazol-4-yl]amino]pyrimidin-5-yl]phenyl]-N-[6-methyl-5-(trifluoromethyl)-3-pyridyl]acetamide]
0.0001 to 10 µM: IC50 [1] | GI50 (BA/F3-FLT3-ITD + D835Y) | IC50 [2]

Cn1cc(Nc2ncc(-c3ccc(CC(=O)Nc4cc(C(C)(F)F)ccn4)cc3)cn2)cn1 [Compound P-0147, N-[4-(1,1-difluoroethyl)-2-pyridyl]-2-[4-[2-[(1-methylpyrazol-4-yl)amino]pyrimidin-5-yl]phenyl]acetamide]
0.0001 to 10 µM: IC50 [1] | GI50 (BA/F3-FLT3-ITD + D835Y) | IC50 [2]

Cn1cc(Nc2ncc(-c3ccc(CC(=O)NCc4cccc(C(F)(F)F)c4)cc3)cn2)cn1 [Compound P-0128, 2-[4-[2-[(1-methylpyrazol-4-yl)amino]pyrimidin-5-yl]phenyl]-N-[[3-(trifluoromethyl)phenyl]methyl]acetamide]
0.0001 to 10 µM: IC50 [1] | GI50 (BA/F3-FLT3-ITD + D835Y) | IC50 [2]

O=C(Cc1cc(F)c(-c2cnc3[nH]c(-c4ccnc(N5CCOCC5)c4)cc3c2)cc1F)Nc1cc(C(F)(F)F)ccn1 [Compound P-0190, 2-[2,5-difluoro-4-[2-(2-morpholino-4-pyridyl)-1H-pyrrolo[2,3-b]pyridin-5-yl]phenyl]-N-[4-(trifluoromethyl)-2-pyridyl]acetamide]
0.0001 to 10 µM: IC50 [1] | GI50 (BA/F3-FLT3-ITD + D835Y) | IC50 [2]

Cn1cc(Nc2ncc(-c3ccc(CC(=O)NCc4ccc(F)cc4Cl)cc3)cn2)cn1 [Compound P-0125, N-[(2-chloro-4-fluoro-phenyl)methyl]-2-[4-[2-[(1-methylpyrazol-4-yl)amino]pyrimidin-5-yl]phenyl]acetamide]
0.0001 to 10 µM: IC50 [1] | GI50 (BA/F3-FLT3-ITD + D835Y) | IC50 [2]

Cn1cnc(Nc2ncc(-c3ccc(CC(=O)Nc4cnc(Cl)c(C(F)(F)F)c4)cc3)cn2)c1 [Compound P-0148, N-[6-chloro-5-(trifluoromethyl)-3-pyridyl]-2-[4-[2-[(1-methylimidazol-4-yl)amino]pyrimidin-5-yl]phenyl]acetamide]
0.0001 to 10 µM: IC50 [1] | GI50 (BA/F3-FLT3-ITD + D835Y) | IC50 [2]

Cn1cc(Nc2ncc(-c3ccc(CC(=O)Nc4ccc(C#N)c(C(F)(F)F)c4)cc3)cn2)cn1 [Compound P-0113, N-[4-cyano-3-(trifluoromethyl)phenyl]-2-[4-[2-[(1-methylpyrazol-4-yl)amino]pyrimidin-5-yl]phenyl]acetamide]
0.0001 to 10 µM: IC50 [1] | GI50 (BA/F3-FLT3-ITD + D835Y) | IC50 [2]

COc1cc(-c2cc3cc(-c4cc(F)c(CC(=O)Nc5cc(C(F)(F)F)ccn5)cc4F)cnc3[nH]2)ccn1 [Compound P-0189, 2-[2,5-difluoro-4-[2-(2-methoxy-4-pyridyl)-1H-pyrrolo[2,3-b]pyridin-5-yl]phenyl]-N-[4-(trifluoromethyl)-2-pyridyl]acetamide]
0.0001 to 10 µM: IC50 [1] | GI50 (BA/F3-FLT3-ITD + D835Y) | IC50 [2]

COc1ncc(NC(=O)Cc2ccc(-c3cnc4[nH]c(-c5ccc(N6CCOCC6)nc5)cc4c3)c(F)c2)cc1C(F)(F)F [Compound P-0193, 2-[3-fluoro-4-[2-(6-morpholino-3-pyridyl)-1H-pyrrolo[2,3-b]pyridin-5-yl]phenyl]-N-[6-methoxy-5-(trifluoromethyl)-3-pyridyl]acetamide]
0.0001 to 10 µM: IC50 [1] | GI50 (BA/F3-FLT3-ITD + D835Y) | IC50 [2]

COc1ccc(-c2cc3cc(-c4ccc(CC(=O)Nc5cnc(OC)c(C(F)(F)F)c5)c(F)c4)cnc3[nH]2)cn1 [Compound P-0007, 2-[2-fluoro-4-[2-(6-methoxy-3-pyridyl)-1H-pyrrolo[2,3-b]pyridin-5-yl]phenyl]-N-[6-methoxy-5-(trifluoromethyl)-3-pyridyl]acetamide]
0.0001 to 10 µM: IC50 [1] | GI50 (BA/F3-FLT3-ITD + D835Y) | IC50 [2]

COCC#Cc1cc2cc(-c3ccc(CC(=O)Nc4cnc(OC)c(C(F)(F)F)c4)cc3)cnc2[nH]1 [Compound P-0056, 2-[4-[2-(3-methoxyprop-1-ynyl)-1H-pyrrolo[2,3-b]pyridin-5-yl]phenyl]-N-[6-methoxy-5-(trifluoromethyl)-3-pyridyl]acetamide]
0.0001 to 10 µM: IC50 [1] | GI50 (BA/F3-FLT3-ITD + D835Y) | IC50 [2]

Cc1n[nH]c2ncc(NC(=O)Cc3ccc(-c4cnc(Nc5cnn(C)c5)nc4)cc3)cc12 [Compound P-0120, N-(3-methyl-1H-pyrazolo[3,4-b]pyridin-5-yl)-2-[4-[2-[(1-methylpyrazol-4-yl)amino]pyrimidin-5-yl]phenyl]acetamide]
0.0001 to 10 µM: IC50 [1] | GI50 (BA/F3-FLT3-ITD + D835Y) | IC50 [2]
